The text below walks through data of ChEMBL document CHEMBL5550200, “Back-Pocket Optimization of 2-Aminopyrimidine-Based Macrocycles Leads to Potent EPHA2/GAK Kinase Inhibitors” (J Med Chem, 2024).

The target in experiment [1] is Ephrin type-A receptor 4 (Homo sapiens, UniProt P54764). Nature of the experiment: Induction of stabilization of recombinant EPHA4 (unknown origin) assessed as change in melting temperature by differential scanning fluorimetry assay. In general terms: Differential scanning fluorimetry follows unfolding on heating by fluorescence.
In experiment [2] the target is Ephrin type-A receptor 7 (Homo sapiens) (UniProt Q15375). The experiment in a line: Induction of stabilization of recombinant EPHA7 (unknown origin) assessed as change in melting temperature by differential scanning fluorimetry assay.
Experiment [3] addresses T1, Ephrin type-B receptor 3 (Homo sapiens) (UniProt P54753).
T1 sequence (whole entry): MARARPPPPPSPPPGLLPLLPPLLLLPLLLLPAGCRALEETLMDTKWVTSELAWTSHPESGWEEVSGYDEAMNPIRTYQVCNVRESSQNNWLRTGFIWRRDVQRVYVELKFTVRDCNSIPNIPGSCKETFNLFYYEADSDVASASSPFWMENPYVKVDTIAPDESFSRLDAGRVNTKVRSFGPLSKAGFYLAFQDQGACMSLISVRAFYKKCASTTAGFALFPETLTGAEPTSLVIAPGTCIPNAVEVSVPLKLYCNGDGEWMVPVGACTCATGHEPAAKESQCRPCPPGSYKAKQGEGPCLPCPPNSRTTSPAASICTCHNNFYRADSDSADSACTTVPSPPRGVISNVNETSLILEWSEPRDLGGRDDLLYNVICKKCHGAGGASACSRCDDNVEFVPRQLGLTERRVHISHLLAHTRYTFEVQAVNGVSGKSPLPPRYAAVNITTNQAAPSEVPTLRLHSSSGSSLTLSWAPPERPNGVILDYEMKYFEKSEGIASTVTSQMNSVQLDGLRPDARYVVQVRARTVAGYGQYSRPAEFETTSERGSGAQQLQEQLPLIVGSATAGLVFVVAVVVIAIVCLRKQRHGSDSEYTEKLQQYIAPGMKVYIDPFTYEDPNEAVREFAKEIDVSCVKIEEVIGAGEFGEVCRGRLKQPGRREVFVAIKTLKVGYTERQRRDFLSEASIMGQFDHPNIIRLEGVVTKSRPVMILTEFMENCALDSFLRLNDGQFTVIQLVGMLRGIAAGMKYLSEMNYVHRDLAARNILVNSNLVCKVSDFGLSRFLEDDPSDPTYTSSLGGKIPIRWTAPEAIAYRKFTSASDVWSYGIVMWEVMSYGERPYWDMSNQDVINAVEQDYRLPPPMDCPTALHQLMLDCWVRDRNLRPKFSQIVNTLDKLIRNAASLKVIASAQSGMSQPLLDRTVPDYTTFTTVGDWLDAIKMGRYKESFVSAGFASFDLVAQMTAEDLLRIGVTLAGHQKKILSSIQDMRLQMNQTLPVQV
Nature of the experiment: Induction of stabilization of recombinant EPHB3 (unknown origin) assessed as change in melting temperature by differential scanning fluorimetry assay.

The target of experiment [4] is Vascular endothelial growth factor receptor 1 (Homo sapiens, UniProt P17948). Nature of the experiment: Induction of stabilization of recombinant FLT1 (unknown origin) assessed as change in melting temperature by differential scanning fluorimetry assay.
Experiment [5] deals with dengue virus type 2. Nature of the experiment: Antiviral activity against DENV-2 New Guinea C infected in human Huh-7 cells assessed as reduction in virus induced cytopathic effect preincubated with cells for 1 hr followed by viral infection and measured after 45 to 48 hrs by luciferase assay. Type of experiment: functional, organism-based. The conditions noted are these: for EC90: time 45-48 hrs. (Damage to the host cells serves as the signal in cytopathic effect assays.)

In experiment [6] the test system is Huh-7. Nature of the experiment: Cytotoxicity against human Huh-7 cells assessed as reduction in cell viability by alamar blue reagent based analysis. Type of experiment: functional.
For experiment [7], the target named is Ephrin type-A receptor 2 (Homo sapiens, UniProt P29317).
Description: Induction of stabilization of recombinant EPHA2 (D596 to G900 residues) (unknown origin) expressed in Escherichia coli rosetta BL21(D3)-R3-pRARE2 competent cells assessed as change in melting temperature by differential scanning fluorimetry assay
In experiment [8] the target is Fibroblast growth factor receptor 1 (Homo sapiens, UniProt P11362).
Description: Induction of stabilization of recombinant FGFR1 (unknown origin) assessed as change in melting temperature by differential scanning fluorimetry assay
The target of experiment [9] is Fibroblast growth factor receptor 2 (Homo sapiens) (UniProt P21802).
Sequence of Fibroblast growth factor receptor 2 (Homo sapiens) (P21802 22-821 limits assumed): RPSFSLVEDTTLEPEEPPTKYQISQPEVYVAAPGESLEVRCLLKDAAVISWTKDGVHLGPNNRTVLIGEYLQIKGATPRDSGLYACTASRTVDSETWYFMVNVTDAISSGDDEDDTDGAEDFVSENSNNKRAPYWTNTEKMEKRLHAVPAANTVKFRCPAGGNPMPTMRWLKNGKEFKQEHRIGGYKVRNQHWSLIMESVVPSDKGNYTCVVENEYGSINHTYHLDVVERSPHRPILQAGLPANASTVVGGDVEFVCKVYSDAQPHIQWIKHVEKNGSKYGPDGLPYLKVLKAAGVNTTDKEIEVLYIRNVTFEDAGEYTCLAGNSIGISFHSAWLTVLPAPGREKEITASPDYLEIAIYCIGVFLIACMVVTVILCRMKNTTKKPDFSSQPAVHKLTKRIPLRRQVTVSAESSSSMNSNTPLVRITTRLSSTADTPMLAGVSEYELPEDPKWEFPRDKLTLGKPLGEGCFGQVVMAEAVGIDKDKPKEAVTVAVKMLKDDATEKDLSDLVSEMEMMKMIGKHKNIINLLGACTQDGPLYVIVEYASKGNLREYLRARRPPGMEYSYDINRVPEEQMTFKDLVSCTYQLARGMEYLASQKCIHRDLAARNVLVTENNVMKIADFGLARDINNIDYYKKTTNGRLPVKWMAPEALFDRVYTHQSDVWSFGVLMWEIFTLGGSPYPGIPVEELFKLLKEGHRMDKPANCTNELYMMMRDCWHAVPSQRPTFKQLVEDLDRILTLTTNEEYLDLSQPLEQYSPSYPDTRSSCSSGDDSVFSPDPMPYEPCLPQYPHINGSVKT
Description: Induction of stabilization of recombinant FGFR2 (unknown origin) assessed as change in melting temperature by differential scanning fluorimetry assay

Sequence of Fibroblast growth factor receptor 1 (P11362 22-822 limits assumed): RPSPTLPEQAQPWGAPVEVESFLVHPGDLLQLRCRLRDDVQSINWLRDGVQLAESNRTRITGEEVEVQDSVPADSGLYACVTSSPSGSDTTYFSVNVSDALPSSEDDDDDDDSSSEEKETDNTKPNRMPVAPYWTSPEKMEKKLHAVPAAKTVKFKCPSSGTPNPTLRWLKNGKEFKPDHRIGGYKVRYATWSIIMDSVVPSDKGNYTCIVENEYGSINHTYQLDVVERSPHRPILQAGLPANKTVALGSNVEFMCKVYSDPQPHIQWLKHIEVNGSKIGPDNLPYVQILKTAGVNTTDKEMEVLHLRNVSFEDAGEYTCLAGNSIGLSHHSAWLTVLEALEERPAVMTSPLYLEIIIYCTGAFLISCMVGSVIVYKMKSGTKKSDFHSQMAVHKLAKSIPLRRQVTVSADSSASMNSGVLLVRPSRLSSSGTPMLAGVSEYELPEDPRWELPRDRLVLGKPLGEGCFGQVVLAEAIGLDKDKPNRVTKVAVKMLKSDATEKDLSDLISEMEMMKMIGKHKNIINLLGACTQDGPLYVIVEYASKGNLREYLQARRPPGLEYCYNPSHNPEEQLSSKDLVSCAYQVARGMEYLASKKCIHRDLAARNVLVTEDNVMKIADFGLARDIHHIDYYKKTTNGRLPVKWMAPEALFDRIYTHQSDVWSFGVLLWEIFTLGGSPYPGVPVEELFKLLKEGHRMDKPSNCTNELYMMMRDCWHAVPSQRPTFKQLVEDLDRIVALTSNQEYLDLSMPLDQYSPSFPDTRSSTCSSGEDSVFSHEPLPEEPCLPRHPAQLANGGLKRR
Sequence of Ephrin type-A receptor 4 (P54764 whole entry): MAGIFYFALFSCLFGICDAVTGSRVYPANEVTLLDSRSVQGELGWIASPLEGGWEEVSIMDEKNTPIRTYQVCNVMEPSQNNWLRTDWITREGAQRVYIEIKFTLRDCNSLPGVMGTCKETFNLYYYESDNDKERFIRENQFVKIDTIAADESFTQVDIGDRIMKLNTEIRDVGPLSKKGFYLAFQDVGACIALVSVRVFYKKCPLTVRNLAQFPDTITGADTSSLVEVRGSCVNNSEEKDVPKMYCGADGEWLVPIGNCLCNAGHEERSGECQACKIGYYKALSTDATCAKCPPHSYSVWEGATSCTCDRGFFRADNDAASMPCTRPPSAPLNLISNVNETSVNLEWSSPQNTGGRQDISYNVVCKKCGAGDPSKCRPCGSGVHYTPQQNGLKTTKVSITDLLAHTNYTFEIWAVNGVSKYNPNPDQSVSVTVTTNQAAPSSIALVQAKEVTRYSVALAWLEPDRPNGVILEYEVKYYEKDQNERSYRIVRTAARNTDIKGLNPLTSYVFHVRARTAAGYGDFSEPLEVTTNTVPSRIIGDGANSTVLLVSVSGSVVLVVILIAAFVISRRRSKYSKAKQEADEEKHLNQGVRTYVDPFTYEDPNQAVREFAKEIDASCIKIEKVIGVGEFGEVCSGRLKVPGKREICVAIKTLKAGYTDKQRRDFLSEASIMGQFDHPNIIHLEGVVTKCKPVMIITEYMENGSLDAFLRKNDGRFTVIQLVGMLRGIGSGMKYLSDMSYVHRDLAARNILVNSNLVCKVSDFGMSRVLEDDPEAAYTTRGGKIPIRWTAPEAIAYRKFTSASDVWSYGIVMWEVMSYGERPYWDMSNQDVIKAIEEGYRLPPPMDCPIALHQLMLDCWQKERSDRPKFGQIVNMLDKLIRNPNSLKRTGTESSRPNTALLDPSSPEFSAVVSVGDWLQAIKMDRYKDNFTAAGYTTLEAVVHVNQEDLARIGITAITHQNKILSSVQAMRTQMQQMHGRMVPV
Sequence of Vascular endothelial growth factor receptor 1 (P17948 whole entry): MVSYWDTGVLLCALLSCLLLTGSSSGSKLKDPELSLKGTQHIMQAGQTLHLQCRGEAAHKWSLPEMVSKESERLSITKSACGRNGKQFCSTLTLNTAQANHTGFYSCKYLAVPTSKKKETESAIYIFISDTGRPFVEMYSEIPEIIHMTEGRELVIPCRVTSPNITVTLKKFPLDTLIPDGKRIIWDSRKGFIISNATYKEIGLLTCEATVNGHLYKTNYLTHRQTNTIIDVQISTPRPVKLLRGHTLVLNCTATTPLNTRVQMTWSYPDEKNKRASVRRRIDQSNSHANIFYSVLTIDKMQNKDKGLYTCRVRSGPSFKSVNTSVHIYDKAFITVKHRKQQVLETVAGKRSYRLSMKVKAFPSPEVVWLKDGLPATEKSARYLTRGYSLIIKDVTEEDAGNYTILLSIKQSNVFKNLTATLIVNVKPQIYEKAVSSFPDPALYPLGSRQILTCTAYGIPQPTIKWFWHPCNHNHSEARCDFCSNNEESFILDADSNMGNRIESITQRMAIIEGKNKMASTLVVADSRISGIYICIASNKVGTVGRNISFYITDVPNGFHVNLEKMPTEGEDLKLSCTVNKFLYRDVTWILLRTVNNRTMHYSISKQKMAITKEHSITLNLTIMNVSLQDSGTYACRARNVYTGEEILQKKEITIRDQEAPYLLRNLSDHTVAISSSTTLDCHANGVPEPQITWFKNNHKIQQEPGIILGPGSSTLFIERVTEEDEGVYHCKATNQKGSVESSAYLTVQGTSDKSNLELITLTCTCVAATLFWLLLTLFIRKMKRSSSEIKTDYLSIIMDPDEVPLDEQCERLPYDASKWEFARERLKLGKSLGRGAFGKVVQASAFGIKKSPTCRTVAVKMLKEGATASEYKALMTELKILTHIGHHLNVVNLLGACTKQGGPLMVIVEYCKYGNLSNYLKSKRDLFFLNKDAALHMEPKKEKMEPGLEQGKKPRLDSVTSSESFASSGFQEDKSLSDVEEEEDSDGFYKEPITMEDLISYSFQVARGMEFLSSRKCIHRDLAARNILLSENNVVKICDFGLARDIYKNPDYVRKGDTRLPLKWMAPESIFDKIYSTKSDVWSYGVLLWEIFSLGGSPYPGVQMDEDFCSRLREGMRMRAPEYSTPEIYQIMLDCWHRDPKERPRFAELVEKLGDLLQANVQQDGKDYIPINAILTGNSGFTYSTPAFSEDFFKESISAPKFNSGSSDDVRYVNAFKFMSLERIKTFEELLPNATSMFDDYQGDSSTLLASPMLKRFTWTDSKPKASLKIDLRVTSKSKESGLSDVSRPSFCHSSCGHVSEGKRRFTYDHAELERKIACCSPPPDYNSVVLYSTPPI
Sequence of Ephrin type-A receptor 7 (Homo sapiens) (Q15375 28-998 limits assumed): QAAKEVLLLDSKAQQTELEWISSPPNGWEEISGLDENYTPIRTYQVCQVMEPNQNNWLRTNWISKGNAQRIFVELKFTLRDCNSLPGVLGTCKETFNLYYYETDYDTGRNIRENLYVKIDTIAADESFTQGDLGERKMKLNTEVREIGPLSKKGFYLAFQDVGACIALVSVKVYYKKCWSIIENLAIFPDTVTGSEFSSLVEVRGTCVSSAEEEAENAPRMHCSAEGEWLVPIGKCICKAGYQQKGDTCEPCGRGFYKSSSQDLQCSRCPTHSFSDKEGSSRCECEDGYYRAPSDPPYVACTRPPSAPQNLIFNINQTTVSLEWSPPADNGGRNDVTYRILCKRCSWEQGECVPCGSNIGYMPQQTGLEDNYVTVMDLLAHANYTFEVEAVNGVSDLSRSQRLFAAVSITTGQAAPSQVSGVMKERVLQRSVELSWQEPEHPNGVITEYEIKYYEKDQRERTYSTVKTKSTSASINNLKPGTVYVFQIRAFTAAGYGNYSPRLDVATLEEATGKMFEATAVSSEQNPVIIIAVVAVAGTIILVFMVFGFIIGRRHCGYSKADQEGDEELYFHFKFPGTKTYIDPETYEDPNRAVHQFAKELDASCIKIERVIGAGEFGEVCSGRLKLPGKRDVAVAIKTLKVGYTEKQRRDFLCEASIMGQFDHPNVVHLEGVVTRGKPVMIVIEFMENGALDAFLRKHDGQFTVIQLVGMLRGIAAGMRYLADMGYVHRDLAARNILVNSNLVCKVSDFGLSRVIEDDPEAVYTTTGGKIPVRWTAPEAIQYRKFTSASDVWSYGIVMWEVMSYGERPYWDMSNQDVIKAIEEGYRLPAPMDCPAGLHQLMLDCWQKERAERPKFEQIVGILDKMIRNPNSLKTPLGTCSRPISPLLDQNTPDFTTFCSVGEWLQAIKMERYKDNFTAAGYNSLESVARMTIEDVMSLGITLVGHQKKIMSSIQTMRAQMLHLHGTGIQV

Regarding `O=S1(=O)NCCCNc2nc(ncc2-c2ccc(Cl)c(Cl)c2)Nc2cccc1c2`, the deltaTm stood at 2.9 K in experiment [1]; 2.4 K in experiment [2]; 3.2 K in experiment [3]; 3.6 K in experiment [4]; 6.2 K in experiment [7]; 2.8 K in experiment [8]. The same compound displayed a deltaTm in [9] of 3.9 K. The EC50 (in general, the midpoint of the concentration-response curve) in [5] came out at 3.7 µM. Besides, the EC90 (as a rule, the point of the concentration-response curve where the effect stands at 90%) in experiment [5] was 9 µM. The 50% cytotoxic concentration (CC50) – broadly, the concentration that lowers cell viability or growth by half – in experiment [6] is greater than 10 µM.
`COc1cc(-c2cnc3nc2NCCCNS(=O)(=O)c2cc(ccc2O)N3)ccc1F`: the deltaTm in [1] was found to be 3.3 K; in experiment [2], 0.3 K; in experiment [3], 4.2 K; in [4], 3 K; in experiment [7], 7.9 K; in experiment [8], 1.9 K. The compound further displayed a deltaTm in experiment [9] of 3 K. Moreover, the EC50 in experiment [5] is greater than 10 µM. The EC90 in [5] was greater than 10 µM. In addition, the CC50 in experiment [6] is greater than 10 µM.
As for `COc1c(F)ccc(-c2cnc3nc2NCCCNS(=O)(=O)c2cccc(c2)N3)c1F`, the deltaTm in [1] is 4.9 K; in [2], -2.5 K; in [3] it was 4.8 K; in experiment [4] it was 8.8 K; in experiment [7], 8.8 K; in experiment [8] it was 5.2 K. In [9], this compound yielded a deltaTm of 5.8 K. Besides, the EC50 in experiment [5] came to 1.8 µM. In addition, in experiment [5], the EC90 was determined as 2.9 µM. In experiment [6], the 50% cytotoxic concentration (CC50) turned out to be 2.9 µM.
With `COc1cc(-c2cnc3nc2NCCCNS(=O)(=O)c2cccc(c2)N3)c(F)cc1F`, the deltaTm in [1] came to 2.8 K; in [2], 0.4 K; in experiment [3], 3.9 K; in experiment [4] it was 3.4 K; in experiment [7] it was 6.9 K; in experiment [8], 2.7 K. Moreover, in experiment [9], the deltaTm was 3.6 K. For the same compound, in experiment [5], the 50% effective concentration (EC50) is greater than 10 µM. Further, the EC90 in [5] was greater than 10 µM. For the same compound, in experiment [6], the CC50 is greater than 10 µM.
